Columns and labels:
Experiment in all cases: Test D controlled growth environment herbicide test, pre- and postemergence
Format in all cases: in vivo
[1] = tested on: Russian thistle (Salsola kali)
Description: (§1) Seeds of plant species selected from bluegrass (annual bluegrass, Poa annua), blackgrass (Alopecurus myosuroides), Canada thistle (Cirsium arvense), canarygrass (Phalaris minor), chickweed (common chickweed, Stellaria media), geranium, cutleaf (cutleaf geranium, Geranium dissectum), galium (catchweed bedstraw, Galium aparine), bromegrass, downy (downy bromegrass, Bromus tectorum), field poppy (Papaver rhoeas), field violet (Viola arvensis), foxtail, green (green foxtail, Setaria viridis), deadnettle (henbit deadnettle, Lamium amplexicaule), ryegrass, Italian (Italian ryegrass, Lolium multiflorum), kochia (Kochia scoparia), lambsquarters (Chenopodium album), oilseed rape (Brassica napus), pigweed (Amaranthus retroflexus), chamomile (scentless chamomile, Matricaria inodora), Russian thistle (Salsola kali), speedwell (bird's-eye speedwell, Veronica persica), barley, spring (spring barley, Hordeum vulgare), wheat, spring (spring wheat, Triticum aestivum), buckwheat, wild (wild buckwheat, Polygonum convolvulus), mustard, wild (wild mustard, Sinapis arvensis), oat, wild (wild oat, Avena fatua), radish, wild (wild radish, Raphanus raphanistrum), windgrass (Apera spica-venti), barley, winter (winter barley, Hordeum vulgare), and wheat, winter (winter wheat, Triticum aestivum) were planted into a silt loam soil and treated preemergence with test chemicals formulated in a non-phytotoxic solvent mixture which included a surfactant.
(§2) At the same time, these species were planted in pots containing Redi-Earth® planting medium (Scotts Company, 14111 Scottslawn Road, Marysville, Ohio 43041) comprising spaghnum peat moss, vermiculite, wetting agent and starter nutrients and treated with postemergence applications of the test chemicals formulated in the same manner. Plants ranged in height from 2 to 18 cm (1- to 4-leaf stage). Treated plants and controls were maintained in a controlled growth environment for 14 to 21 d after which time all species were compared to controls and visually evaluated. Plant response ratings, summarized in Table D, are based on a scale of 0 to 100 where 0 is no effect and 100 is complete control. A dash (-) response means no test result.

[2] = tested on: blackgrass (Alopecurus myosuroides)
Description: as §1, §2

[3] = tested on: bromegrass, downy (downy bromegrass, Bromus tectorum)
Description: as §1, §2

[4] = tested on: chickweed (common chickweed, Stellaria media)
Description: as §1, §2

[5] = tested on: deadnettle (henbit deadnettle, Lamium amplexicaule)
Description: as §1, §2

[6] = tested on: foxtail, green (green foxtail, Setaria viridis)
Description: as §1, §2

[7] = tested on: mustard, wild (wild mustard, Sinapis arvensis)
Description: as §1, §2

[8] = tested on: oat, wild (wild oat, Avena fatua)
Description: as §1, §2

[9] = tested on: oilseed rape (Brassica napus)
Description: as §1, §2

[10] = tested on: ryegrass, Italian (Italian ryegrass, Lolium multiflorum)
Description: as §1, §2

[11] = tested on: speedwell (bird's-eye speedwell, Veronica persica)
Description: as §1, §2

[12] = tested on: wheat, spring (spring wheat, Triticum aestivum)
Description: as §1, §2

[13] = tested on: wheat, winter (winter wheat, Triticum aestivum)
Description: as §1, §2

[14] = Postemergence, 31 g ai/ha, scale 0 to 100 (0 no effect, 100 complete control)
[15] = Postemergence, 125 g ai/ha, visual rating on scale 0 (no effect) to 100 (complete control), 14 to 21 d
[16] = Postemergence, 250 g ai/ha, scale 0 to 100 (0 no effect, 100 complete control)
[17] = postemergence, 62 g ai/ha, scale 0 to 100, 0 no effect, 100 complete control

Cc1cc(C)c2ccccc2c1-c1c(O)c(C)nn(C)c1=O [Compound 21]
Russian Thistle plant response rating [1, 14]: 70 | Plant response rating, Russian Thistle [1, 15]: 80 | Plant response rating, Russian Thistle [1, 16]: 85 | Plant response rating, Russian Thistle [1, 17]: 75 | Blackgrass plant response rating [2, 14]: 80 | Plant response rating, Blackgrass [2, 15]: 85 | Plant response rating, Blackgrass [2, 16]: 90 | Plant response rating, Blackgrass [2, 17]: 85 | Bromegrass, Downy plant response rating [3, 14]: 45 | Plant response rating, Bromegrass, Downy [3, 15]: 75 | Plant response rating, Bromegrass, Downy [3, 16]: 80 | Plant response rating, Bromegrass, Downy [3, 17]: 60 | Chickweed plant response rating [4, 14]: 90 | Plant response rating, Chickweed [4, 15]: 100 | Plant response rating, Chickweed [4, 16]: 100 | Plant response rating, Chickweed [4, 17]: 100 | Deadnettle plant response rating [5, 14]: 90 | Plant response rating, Deadnettle [5, 15]: 95 | Plant response rating, Deadnettle [5, 16]: 100 | Plant response rating, Deadnettle [5, 17]: 100 | Foxtail, Green plant response rating [6, 14]: 70 | Plant response rating, Foxtail, Green [6, 15]: 85 | Plant response rating, Foxtail, Green [6, 16]: 95 | Plant response rating, Foxtail, Green [6, 17]: 80 | Mustard, Wild plant response rating [7, 14]: 100 | Plant response rating, Mustard, Wild [7, 15]: 100 | Plant response rating, Mustard, Wild [7, 16]: 100 | Plant response rating, Mustard, Wild [7, 17]: 100 | Oat, Wild plant response rating [8, 14]: 80 | Plant response rating, Oat, Wild [8, 15]: 85 | Plant response rating, Oat, Wild [8, 16]: 100 | Plant response rating, Oat, Wild [8, 17]: 85 | Oilseed Rape plant response rating [9, 14]: 80 | Plant response rating, Oilseed Rape [9, 15]: 100 | Plant response rating, Oilseed Rape [9, 16]: 100 | Plant response rating, Oilseed Rape [9, 17]: 100 | Ryegrass, Italian plant response rating [10, 14]: 80 | Plant response rating, Ryegrass, Italian [10, 15]: 85 | Plant response rating, Ryegrass, Italian [10, 16]: 80 | Plant response rating, Ryegrass, Italian [10, 17]: 80 | Speedwell plant response rating [11, 14]: 100 | Plant response rating, Speedwell [11, 15]: 100 | Plant response rating, Speedwell [11, 16]: 100 | Plant response rating, Speedwell [11, 17]: 100 | Wheat, Spring plant response rating [12, 14]: 20 | Plant response rating, Wheat, Spring [12, 15]: 40 | Plant response rating, Wheat, Spring [12, 16]: 50 | Plant response rating, Wheat, Spring [12, 17]: 30 | Wheat, Winter plant response rating [13, 14]: 20 | Plant response rating, Wheat, Winter [13, 15]: 35 | Plant response rating, Wheat, Winter [13, 16]: 40 | Plant response rating, Wheat, Winter [13, 17]: 25

— patent US10597388B2, “Pyridazinone herbicides” (FMC CORPORATION, priority 2014, dated 2020)
